Assay results published in patent US11203592B2, “Inhibitors of indoleamine 2,3-dioxygenase and methods of their use” (BRISTOL-MYERS SQUIBB COMPANY, priority 2017, dated 2021).

Tests used:
[1] = biological target: T1, indoleamine 2,3-dioxygenase (IDO) (Homo sapiens, UniProt P14902); experiment: HeLa cell-based indoleamine 2,3-dioxygenase (IDO) assay, kynurenine production; conditions: HeLa cells, IFNγ 25 ng/mL, 48 hour incubation, kynurenine absorbance at 480 nm
T1 construct: endogenous in cells; host or cells: HeLa (ATCC CCL-2), induced with IFNγ at 25 ng/mL
Procedure: Assessment of Inhibitor Activity in HeLa Cell-Based Indoleamine 2,3-dioxygenase (IDO) Assay:
HeLa (ATCC® CCL-2) cells were obtained from the ATCC® and cultured in Dulbecco's Modified Eagle Medium supplemented with 4.5 g/L glucose, […] (#10-013-CV, Corning), 2 mM L-alanyl-L-glutamine dipeptide (#35050-061, Gibco), 100U/mL penicillin, 100 μg/mL streptomycin (#SV30010, HyClone) and 10% fetal bovine serum (#SH30071.03 HyClone). Cells were maintained in a humidified incubator at 37° C. in 5% CO2.
IDO activity was assessed as a function of kynurenine production as follows: HeLa cells were seeded in a 96-well culture plate at a density of 5,000 cells/well and allowed to equilibrate overnight. After 24 hours, the media was aspirated and replaced with media containing IFNγ (#285-IF/CF, R&D Systems) at a final concentration of 25 ng/mL. A serial dilution of each test compound was added to the cells in a total volume of 200 μL of culture medium. After a further 48 hour incubation, 170 μL of supernatant was transferred from each well to a fresh 96-well plate. 12.1 μL of 6.1N trichloroacetic acid (#T0699, Sigma-Aldrich) was added to each well and mixed, followed by incubation at 65° C. for 20 minutes to hydrolyze N-formylkynurenine, the product of indoleamine 2,3-dioxygenase, to kynurenine. The reaction mixture was then centrifuged for 10 mins at 500×g to sediment the precipitate. 100 μL of the supernatant was transferred from each well to a fresh 96-well plate. 100 μl of 2% (w/v) p-dimethylaminobenzaldehyde (#15647-7, Sigma-Aldrich) in acetic acid (#A6283, Sigma-Aldrich) was added to each well mixed and incubated at room temperature for 20 inns. Kynurenine concentrations were determined by measuring absorbance at 480 nm and calibrating against an L-kynurenine (#K8625, Sigma-Aldrich) standard curve using a SPECTRAMAX® M2e microplate reader (Molecular Devices). The percentage activity at each inhibitor concentration was determined and IC50 values assessed using nonlinear regression.

human IDO1 = biological target: T2, human IDO1 (Homo sapiens, UniProt P14902); experiment: human IDO1/HEK293 cell IDO inhibition assay; type: cell-based; conditions: HEK293 cells stably expressing human IDO1, 20 hours incubation, absorbance at 490 nm; read-out: IDO1 HEK Human IC50
T2 construct: expressed in transfected cells
Procedure: HEK293 cells were transfected with a pCDNA-based mammalian expression vector harboring human IDO1 cDNA (NM 002164.2) by electroporation. They were cultured in medium (DMEM with 10% FBS) containing 1 mg/ml G418 for two weeks. Clones of HEK293 cells that stably expressed human IDO1 protein were selected and expanded for IDO inhibition assay.
The human IDO1/HEK293 cells were seeded at 10,000 cells per 50 μL per well with RPMI/phenol red free media contains 10% FBS in a 384-well black wall clear bottom tissue culture plate (Matrix Technologies LLC) 100 nL of certain concentration of compound was then added to each well using ECHO liquid handling systems. The cells were incubated for 20 hours in 37° C. incubator with 5% CO2.
The compound treatments were stopped by adding trichloroacetic acid (Sigma-Aldrich) to a final concentration at 0.2%. The cell plate was further incubated at 50° C. for 30 minute. The equal volume supernatant (20 μL) and 0.2% (w/v) Ehrlich reagent (4-dimethylaminobenzaldehyde, Sigma-Aldrich) in glacial acetic acid were mixed in a new clear bottom 384-well plate. This plate was then incubated at room temperature for 30 minute. The absorbance at 490 nm was measured on Envision plate reader.
Compound IC50 values were calculated using the counts of 500 nM of a reference standard treatment as one hundred percent inhibition, and counts of no compound but DMSO treatment as zero percent inhibition.

T1 sequence (P14902 whole entry): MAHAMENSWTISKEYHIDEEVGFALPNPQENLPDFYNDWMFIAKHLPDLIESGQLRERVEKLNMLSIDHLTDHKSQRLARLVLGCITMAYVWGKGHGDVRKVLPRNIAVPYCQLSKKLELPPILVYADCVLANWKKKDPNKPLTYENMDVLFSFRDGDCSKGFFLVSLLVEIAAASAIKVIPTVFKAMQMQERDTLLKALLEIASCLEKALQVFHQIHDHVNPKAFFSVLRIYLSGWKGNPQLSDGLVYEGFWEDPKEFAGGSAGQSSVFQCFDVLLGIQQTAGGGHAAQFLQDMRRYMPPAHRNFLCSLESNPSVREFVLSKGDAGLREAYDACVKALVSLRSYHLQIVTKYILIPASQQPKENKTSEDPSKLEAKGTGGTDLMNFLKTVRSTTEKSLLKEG
T2 sequence (P14902 whole entry): as above

Row | SMILES | IC50 [1] [nM] | IC50 (human IDO1) [nM]
1 | O=C(C[C@H]1CC[C@@]2(CC1)OCc1ccccc12)Nc1ccc(Cl)cc1 [Example 1, N-(4-Chlorophenyl)-2-((1r,4r)-3′H-spiro[cyclohexane-1,1′-isobenzofuran]-4-yl)acetamide] | 114 | 100
2 | O=C(C[C@H]1CC[C@]2(CC1)OCc1ccccc12)Nc1ccc(Cl)cc1 [Example 3, N-(4-Chlorophenyl)-2-((1s,4s)-3′H-spiro[cyclohexane-1,1′-isobenzofuran]-4-yl)acetamide] | 219 | 511
3 | O=C(C[C@H]1CC[C@@]2(CC1)OCc1ccccc12)NC12CC3CC(CC(C3)C1)C2 [Example 2, N-((1R,3S)-Adamantan-1-yl)-2-((1R,4r)-3′H-spiro[cyclohexane-1,1′-isobenzofuran]-4-yl)acetamide] | 189 | –

Results, then the molecule that gave them:

Row | IC50 [1] [nM] | IC50 (human IDO1) [nM] | SMILES
4 | 20 | 17 | C[C@H](C(=O)Nc1ccc(Cl)cc1)[C@H]1CC[C@@]2(CC1)COc1ccccc12 [Example 15, (S)—N-(4-Chlorophenyl)-2-((1'S,4′r)-2H-spiro[benzofuran-3,1′-cyclohexan]-4′-yl)propanamide]
5 | 628 | – | CC(NC(=O)C12CCC(Cl)(CC1)CC2)[C@H]1CC[C@]2(CC1)OCc1ccccc12 (mixture of isomers) [Example 13, rac-N-(1-((1s,4s)-3′H-Spiro[cyclohexane-1,1′-isobenzofuran]-4-yl)ethyl)-4-chlorobicyclo[2.2.2]octane-1-carboxamide]
